Measured values reported in US12655106B2 (Eikonizo Therapeutics, Inc., priority 2021, dated 2026).

How the values were obtained:
[1] = biological target: T1, Full length Human HDAC6 (Homo sapiens, UniProt Q9UBN7); test: Caliper endpoint assay for HDAC enzymatic activity (HDAC6); assay type: biochemical; conditions: for IC50: in vitro enzymatic, Caliper endpoint assay, 30 min pre-incubation, 1 μM substrate peptide; for Selectivity (6 v 8): ratio of HDAC8 IC50/HDAC6 IC50
T1 construct: Full length Human HDAC6; FLAG (C); host or cells: baculovirus expression system
T1 sequence (Q9UBN7 1-1215): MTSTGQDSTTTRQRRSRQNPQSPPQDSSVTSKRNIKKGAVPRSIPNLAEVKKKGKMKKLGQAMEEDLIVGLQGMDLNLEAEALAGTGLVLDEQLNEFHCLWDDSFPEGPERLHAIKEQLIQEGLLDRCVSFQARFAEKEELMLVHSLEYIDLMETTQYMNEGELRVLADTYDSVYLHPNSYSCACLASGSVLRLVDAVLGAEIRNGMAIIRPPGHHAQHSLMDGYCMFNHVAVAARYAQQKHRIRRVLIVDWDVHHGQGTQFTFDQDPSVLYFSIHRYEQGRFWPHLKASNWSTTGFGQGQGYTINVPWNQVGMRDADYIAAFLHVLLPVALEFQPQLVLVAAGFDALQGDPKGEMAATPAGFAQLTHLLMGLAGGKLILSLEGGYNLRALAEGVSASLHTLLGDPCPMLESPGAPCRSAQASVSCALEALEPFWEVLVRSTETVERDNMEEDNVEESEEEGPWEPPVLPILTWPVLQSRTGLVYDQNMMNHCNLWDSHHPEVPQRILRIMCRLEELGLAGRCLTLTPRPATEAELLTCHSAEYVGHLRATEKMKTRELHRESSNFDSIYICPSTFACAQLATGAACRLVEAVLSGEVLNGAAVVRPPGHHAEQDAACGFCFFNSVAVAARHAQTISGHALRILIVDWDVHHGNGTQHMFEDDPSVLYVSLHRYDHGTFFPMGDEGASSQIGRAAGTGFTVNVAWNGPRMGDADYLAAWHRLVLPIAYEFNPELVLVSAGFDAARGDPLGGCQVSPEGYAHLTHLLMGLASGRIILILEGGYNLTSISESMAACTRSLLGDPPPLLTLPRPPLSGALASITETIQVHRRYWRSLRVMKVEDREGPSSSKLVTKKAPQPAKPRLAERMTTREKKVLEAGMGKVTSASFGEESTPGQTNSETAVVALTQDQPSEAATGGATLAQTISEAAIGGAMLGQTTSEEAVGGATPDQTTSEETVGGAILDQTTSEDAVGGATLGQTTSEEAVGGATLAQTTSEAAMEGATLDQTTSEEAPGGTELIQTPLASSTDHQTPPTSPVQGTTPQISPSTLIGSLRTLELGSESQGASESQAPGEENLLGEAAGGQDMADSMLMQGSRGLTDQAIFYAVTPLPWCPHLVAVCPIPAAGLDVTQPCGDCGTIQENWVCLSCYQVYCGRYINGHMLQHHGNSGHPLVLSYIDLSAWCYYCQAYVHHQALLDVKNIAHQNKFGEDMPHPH

[2] = biological target: T2, Full length Human HDAC8 (Homo sapiens, UniProt Q9BY41); test: Caliper endpoint assay for HDAC enzymatic activity (HDAC8); assay type: biochemical; conditions: in vitro enzymatic, 30 min pre-incubation, 1 μM substrate peptide
T2 construct: Full length Human HDAC8; HIS (N); host or cells: baculovirus expression system
T2 sequence (Q9BY41 1-377): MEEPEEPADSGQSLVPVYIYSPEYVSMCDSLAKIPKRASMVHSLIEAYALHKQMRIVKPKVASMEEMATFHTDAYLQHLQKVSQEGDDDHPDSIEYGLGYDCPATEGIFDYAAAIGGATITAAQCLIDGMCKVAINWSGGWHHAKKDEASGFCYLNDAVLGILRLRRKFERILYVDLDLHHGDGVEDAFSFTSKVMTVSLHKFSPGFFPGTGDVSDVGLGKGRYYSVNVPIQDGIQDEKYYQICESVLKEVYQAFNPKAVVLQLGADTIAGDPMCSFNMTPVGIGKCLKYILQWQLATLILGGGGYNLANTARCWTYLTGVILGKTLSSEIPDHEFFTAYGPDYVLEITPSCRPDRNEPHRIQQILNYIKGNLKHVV

Row | IC50 [1] | IC50 [2] | Compound | Selectivity (6 v 8) [1]
1 | > 100 µM | 10 to 100 µM | Cc1cc2c(cc1C(=O)NO)CCN(C1CC3(CCCCC3)C1)C2 | V (V: >1000)
2 | 0.001 to 0.1 µM | 10 to 100 µM | O=C(NO)c1cc(F)c2c(c1)CCN(C[C@@H]1CCC3(CCCCC3)C1)C2 (single isomer, unassigned) [Compound 107] | –
3 | 0.001 to 0.1 µM | 10 to 100 µM | O=C(NO)c1cc(F)c2c(c1)CCN(C[C@H]1CCC3(CCCCC3)C1)C2 (single isomer, unassigned) [Compound 108] | –
4 | 0.001 to 0.1 µM | 10 to 100 µM | O=C(NO)c1cc(F)c2c(c1)CCN([C@H]1CCC3(CCCCC3)C1)C2 (single isomer, unassigned) [Compound 109] | –
5 | 0.001 to 0.1 µM | 10 to 100 µM | O=C(NO)c1cc(F)c2c(c1)CCN([C@@H]1CCC3(CCCCC3)C1)C2 (single isomer, unassigned) [Compound 110] | –
6 | – | – | CC1(C)C[C@H]2Cc3cc(C(=O)NO)cc(F)c3CN2C1 (single isomer, unassigned) [Compound 125] | III (III: >10-100)
7 | 10 to 100 µM | > 100 µM | O=C(NO)c1cc(F)c2c(c1)C[C@@H]1COCCN1C2 (single isomer, unassigned) [Compound 129] | –
8 | 10 to 100 µM | > 100 µM | O=C(NO)c1cc(F)c2c(c1)C[C@H]1COCCN1C2 (single isomer, unassigned) [Compound 130] | –
9 | 0.001 to 0.1 µM | 1 to 10 µM | O=C(NO)c1ccc2c(c1)C[C@H]1COCC(=O)N1C2 (single isomer, unassigned) [Compound 134] | –
10 | 0.1 to 1 µM | 1 to 10 µM | O=C(NO)c1cc(F)c2c(c1)C[C@H]1CC3(CCCCC3)CN1C2 (single isomer, unassigned) [Compound 135] | –
11 | 0.001 to 0.1 µM | 1 to 10 µM | O=C(NO)c1cc(F)c2c(c1)C[C@@H]1CC3(CCCCC3)CN1C2 (single isomer, unassigned) [Compound 136] | –
12 | 0.1 to 1 µM | 10 to 100 µM | O=C(NO)c1cc(F)c2c(c1)C[C@@H]1CCC3(CCCCC3)CN1C2 (single isomer, unassigned) [Compound 137] | –
13 | 0.001 to 0.1 µM | 1 to 10 µM | O=C(NO)c1cc(F)c2c(c1)CCN1CCCC[C@@H]21 (single isomer, unassigned) [Compound 139] | –
14 | 1 to 10 µM | 10 to 100 µM | O=C(NO)c1cc(F)c2c(c1)CCN1CCCC[C@H]21 (single isomer, unassigned) [Compound 140] | –
15 | 0.001 to 0.1 µM | 1 to 10 µM | C[C@@H]1C[C@@H]2c3c(F)cc(C(=O)NO)cc3CCN2C1 (single isomer, unassigned) [Compound 151] | –
16 | 0.001 to 0.1 µM | 1 to 10 µM | C[C@@H]1C[C@H]2c3c(F)cc(C(=O)NO)cc3CCN2C1 (single isomer, unassigned) [Compound 152] | –
17 | 0.1 to 1 µM | 1 to 10 µM | C[C@H]1C[C@@H]2c3c(F)cc(C(=O)NO)cc3CCN2C1 (single isomer, unassigned) [Compound 153] | –
18 | 0.1 to 1 µM | 1 to 10 µM | C[C@H]1C[C@H]2c3c(F)cc(C(=O)NO)cc3CCN2C1 (single isomer, unassigned) [Compound 154] | –
19 | 0.1 to 1 µM | 1 to 10 µM | C[C@@H]1CC[C@@H]2c3c(F)cc(C(=O)NO)cc3CCN12 (single isomer, unassigned) [Compound 156] | –
20 | 0.001 to 0.1 µM | 1 to 10 µM | C[C@H]1CC[C@H]2c3c(F)cc(C(=O)NO)cc3CCN12 (single isomer, unassigned) [Compound 157] | –
21 | 0.001 to 0.1 µM | 1 to 10 µM | C[C@@H]1CC[C@H]2c3c(F)cc(C(=O)NO)cc3CCN12 (single isomer, unassigned) [Compound 158] | –

Row | IC50 [1] | IC50 [2] | Compound | Selectivity (6 v 8) [1]
22 | 0.1 to 1 µM | 1 to 10 µM | C[C@H]1CC[C@@H]2c3c(F)cc(C(=O)NO)cc3CCN21 (single isomer, unassigned) [Compound 159] | –
23 | 0.1 to 1 µM | 0.1 to 1 µM | CN1Cc2cc(C(=O)NO)ccc2[C@@H]2CCCN21 (single isomer, unassigned) [Compound 160] | –
24 | 0.1 to 1 µM | 1 to 10 µM | CN1Cc2cc(C(=O)NO)ccc2[C@H]2CCCN21 (single isomer, unassigned) [Compound 161] | –
25 | – | – | O=C(NO)c1ccc2c(c1)CN1CCC[C@@H]21 (single isomer, unassigned) [Compound 165] | III (III: >10-100)
26 | 0.1 to 1 µM | 1 to 10 µM | CC[C@@H]1N(Cc2ccc(C(=O)NO)cc2F)CC12CCCC2 (single isomer, unassigned) [Compound 168] | –
27 | 0.001 to 0.1 µM | 10 to 100 µM | O=C(NO)c1cc(F)c2c(c1)CCN(C[C@@H]1CCCCO1)C2 (single isomer, unassigned) [Compound 174] | IV (IV: >100-1000)
28 | 0.001 to 0.1 µM | 10 to 100 µM | O=C(NO)c1cc(F)c2c(c1)CCN(C[C@H]1CCCCO1)C2 (single isomer, unassigned) [Compound 175] | IV (IV: >100-1000)
29 | 0.001 to 0.1 µM | 1 to 10 µM | O=C(NO)c1cc(F)c2c(c1)CCN([C@@H]1CCC3(CCCC3)C1)C2 (single isomer, unassigned) [Compound 184] | IV (IV: >100-1000)
30 | 0.001 to 0.1 µM | 10 to 100 µM | O=C(NO)c1cc(F)c2c(c1)CCN([C@H]1CCC3(CCCC3)C1)C2 (single isomer, unassigned) [Compound 185] | IV (IV: >100-1000)
31 | 0.001 to 0.1 µM | 10 to 100 µM | O=C(NO)c1cc(F)c2c(c1)CCN(C1CC3(CCOC3)C1)C2 (single isomer, unassigned) [Compound 188, 8-fluoro-N-hydroxy-2-(6-oxaspiro[3.4]octan-2-yl)-1,2,3,4-tetrahydroisoquinoline-6-carboxamide] | IV (IV: >100-1000)
32 | 0.001 to 0.1 µM | 10 to 100 µM | O=C(NO)c1cc(F)c2c(c1)CCN(C1CC3(CCOC3)C1)C2 (single isomer, unassigned) [Compound 189, 8-fluoro-N-hydroxy-2-(6-oxaspiro[3.4]octan-2-yl)-1,2,3,4-tetrahydroisoquinoline-6-carboxamide] | IV (IV: >100-1000)
33 | – | – | O=C(NO)c1cc(F)c(CN2C3CCC2COC3)cc1F [Compound 50] | III (III: >10-100)
34 | – | – | O=C(NO)c1ccc(CN2C3CCCC2COC3)c(F)c1 [Compound 52] | III (III: >10-100)
35 | – | – | CN1CC2CCC(C1)N2Cc1ccc(C(=O)NO)cc1F [Compound 56] | III (III: >10-100)
36 | – | – | O=C(NO)c1ccc(CN2C3CCC2COC3)c(F)c1 [Compound 59] | III (III: >10-100)
37 | – | – | O=C(NO)c1ccc(CN2C3CCCC2CCC3)c(F)c1 [Compound 60] | II (II: >1-10)
38 | – | – | O=C(NO)c1ccc(CN2C3CCCC2CC3)c(F)c1 [Compound 61] | II (II: >1-10)
39 | – | – | O=C1CC2CCCC(C1)N2Cc1ccc(C(=O)NO)cc1F [Compound 62] | III (III: >10-100)
40 | – | – | O=C1CC2CCC(C1)N2Cc1ccc(C(=O)NO)cc1F [Compound 63] | III (III: >10-100)
41 | – | – | O=C(NO)c1ccc(CN2CCC3(CCCCC3)C2)c(F)c1 [Compound 75, 4-((2-Azaspiro[4.5]decan-2-yl)methyl)-3-fluoro-N-hydroxybenzamide] | III (III: >10-100)

Row | Compound | IC50 [1] | IC50 [2] | Selectivity (6 v 8) [1]
42 | O=C(NO)c1cc(F)c2c(c1)C[C@@H]1CCCN1C2 (single isomer, unassigned) [Compound 119] | 0.1 to 1 µM | 10 to 100 µM | III (III: >10-100)
